In patent US9278914B2, “SARMs and method of use thereof” (UNIVERSITY OF TENNESSEE RESEARCH FOUNDATION, priority 2004, dated 2016):

Columns and labels:
[1] = tested on: intact male Sprague-Dawley rats; assay: Anabolic and androgenic activity in intact male rats, daily oral gavage; format: in vivo, rat
Method: The test article for this study was weighed and dissolved in 10% DMSO (Fisher) diluted with PEG 300 (Acros Organics, N.J.) for preparation of the appropriate dosage concentrations. The animals were housed in groups of 2 to 3 animals per cage. Animals were randomly assigned to one of seven groups consisting of 4 to 5 animals per group. Control groups (intact and ORX) were administered vehicle daily. […] Where appropriate, animals were castrated on day one of the study. Treatment with compound of formula S-II began nine days post ORX and was administered daily via oral gavage for fourteen days.
The animals were sacrificed under anesthesia (ketamine/xyalzine, 87:13 mg/kg) and body weights were recorded. In addition, ventral prostate, seminal vesicles, and levator ani muscle were removed, individually weighed, normalized to body weight, and expressed as a percentage of intact control. Student's T-test was used to compare individual dose groups to the intact control group. Significance was defined a priori as a P-value<0.05. Ventral prostate and seminal vesicle weights were evaluated as a measure of androgenic activity, whereas levator ani muscle weight was evaluated as a measure of anabolic activity. Blood was collected from the abdominal aorta, centrifuged, and sera were frozen at −80° C. prior to determination of serum hormone levels. Serum luteinizing hormone (LH) and follicle stimulating hormone (FSH) concentrations were determined.
(§1) The test article for this study was weighed and dissolved in 10% DMSO (Fisher) diluted with PEG 300 (Acros Organics, N.J.) for preparation of the appropriate dosage concentrations. The animals were housed in groups of 2 to 3 animals per cage. Animals were randomly assigned to one of seven groups consisting of 4 to 5 animals per group. Control groups (intact and ORX) were administered vehicle daily. Compound of formula S-XXIII was administered via oral gavage at doses of 0.01, 0.03, 0.1, 0.3, 0.75, and 1 mg/day to both intact and ORX groups. Where appropriate, animals were castrated on day one of the study. Treatment with compound of formula S-XXIII began nine days post ORX and was administered daily via oral gavage for fourteen days.
as §1, with “S-XXIV” for “S-XXIII”, “study.” for “study. Treatment with compound of formula S-XXIII began nine days post ORX and was administered daily via oral gavage for fourteen days.”

[2] = Metabolic stability measured in human liver microsomes; format: in vitro ADME
Method: Microsome reactions were performed under either Phase I or “Phase I and II” conditions, where indicated. Compound stocks (10 mM ACN) were initially initially diluted to a concentration of 60 μM (in 60% ACN/H2O) resulting in a “working stock” stock” solution of 100×. Human liver microsomes were utilized at a final concentration of 0.6 mg/ml. Duplicate wells were used for each time point (0, 6, 10, 30, and 60 minutes). Reactions were carried out at 37° C. in a shaking water bath, and the final concentration of solvent was kept constant at 0.6%. The final volume for each reaction was 600 μl, comprised of […] of 100 mM KPO4 buffer, (pH 7.4); 12.6 μl of HLM (from a 20 mg/ml stock); 6 μl of 100×“working stock” drug compound, and 126 μl of NRS “master mix” solution. At each time point, 100 μl of reaction was removed and added to a sample well containing 100 μl of ice-cold, 100% ACN (plus internal standards), to stop the reaction. The NRS “master mix” is a solution of glucose-6-phosphate dehydrogenase, NADP^+, MgCl2, and glucose-6-phosphate, prepared per manufacturer's instructions (BD Biosciences, Waltham, Mass.). Each 6.0 ml stock of NRS “master mix” solution contains 3.8 […], 1.0 ml solution “A” (Cat. #461220), and 0.2 ml solution “B” (Cat. #461200). Human liver microsomes (lot #0610279, Xenotech Corp.) represented a pool of 60 donors. donors.
Samples were centrifuged at 3,000 rpm for 10 minutes at 4° C. to remove debris and precipitate protein. Approximately 160 μl of supernatant was subsequently transferred to a new sample block for analysis. The concentration of parent drug remaining in each well (expressed as percent remaining versus Time ‘0’, at the beginning of the reaction) was measured by LC/MS, as detailed below.
All samples were analyzed on the MDS/Sciex API4000 Q Trap system with electrospray ionization (ESI) in the positive or negative SIM mode, depending on the compounds. The mobile phases were isocratic at 30% A (0.1% formic acid in water) and 70% B (0.1% formic acid in acetonitrile) with a flow rate of 0.4 mL/min. A Phenomenex Luna Phenyl-Hexyl column (60×2.0 mm ID, 6μ) was used. The injection volume was 10 μL. The total run time per sample was 1.6 to 3.0 minutes. […] The percentage of parent drug compound remaining after each time point was determined relative to the initial measured concentration at the beginning of the reaction (T0 min).
For half-life determination, data was fitted using GraphPad Prism, v 4.03 with the non-linear regression equation “one phase exponential decay” defined as: Y=Span*exp(−K*X)+Plateau (decays to Plateau with a first-order rate constant, K). […] Intrinsic Clearance (μl/min/mg protein) is defined as: CLint=0.693*(1/T1/2)*(ml incubation/mg protein)*1000; This equation can also be expressed as (K*1000)/microsome concentration.

[3] = Pharmacokinetics in beagle dogs; format: in vivo; conditions: dog, plasma
CYP1A2 = CYP1A2 (Homo sapiens (Human), UniProt P05177); assay: In vitro CYP inhibition assay; format: biochemical
Method: Averages (minus background) and IC50 values were calculated.

CYP1A2, sequence (P05177 whole entry): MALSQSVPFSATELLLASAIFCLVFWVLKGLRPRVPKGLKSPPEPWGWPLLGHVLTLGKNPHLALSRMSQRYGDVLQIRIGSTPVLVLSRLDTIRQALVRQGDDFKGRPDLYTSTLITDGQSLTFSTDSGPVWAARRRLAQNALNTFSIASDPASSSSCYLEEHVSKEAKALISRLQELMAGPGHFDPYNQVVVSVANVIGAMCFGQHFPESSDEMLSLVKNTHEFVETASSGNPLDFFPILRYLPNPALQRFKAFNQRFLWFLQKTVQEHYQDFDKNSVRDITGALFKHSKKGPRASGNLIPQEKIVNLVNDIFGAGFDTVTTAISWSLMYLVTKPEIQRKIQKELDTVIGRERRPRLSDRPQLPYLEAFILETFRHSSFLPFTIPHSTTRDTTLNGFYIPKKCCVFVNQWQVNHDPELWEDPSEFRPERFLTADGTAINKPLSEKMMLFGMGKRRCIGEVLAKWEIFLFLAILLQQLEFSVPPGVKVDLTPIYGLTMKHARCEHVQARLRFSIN

**Q.** Which results are given for `C[C@](O)(COc1ccc(Cl)c(F)c1)C(=O)Nc1ccc(C#N)c(C(F)(F)F)c1` [S-II, (S)-3-(4-chloro-3-fluorophenoxy)-N-(4-cyano-3-(trifluoromethyl)phenyl)-2-hydroxy-2-methylpropanamide]?
**A.** Levator ani muscle weight ([1]; 0.01 mg/day oral): 100%±10%; Prostate weight ([1]; 0.01 mg/day oral): 117%±20%; Levator ani muscle weight ([1]; 0.03 mg/day oral): 98%±7%; Prostate weight ([1]; 0.03 mg/day oral): 98%±15%; Levator ani muscle weight ([1]; 0.1 mg/day oral): 110%±5%; Prostate weight ([1]; 0.1 mg/day oral): 82%±20%; Levator ani muscle weight ([1]; 0.3 mg/day oral): 110%±5%; Prostate weight ([1]; 0.3 mg/day oral): 62%±5%; Levator ani muscle weight ([1]; 0.75 mg/day oral): 125%±10%; Prostate weight ([1]; 0.75 mg/day oral): 107%±30%; Levator ani muscle weight ([1]; 1 mg/day oral): 129%±10%; Prostate weight ([1]; 1 mg/day oral): 110%±14%; CLint (ul/min/mg) Phase I + II ([2]; Phase I + II): <1 µL/min/mg; Half Life (minutes) Phase I + II ([2]; Phase I + II, 0.6 μM): Stable; Half Life (minutes) Phase I only ([2]; Phase I only, 0.6 μM): Stable; microsomal CLint at 0.6 μM ([2]; human, human liver microsomes, pH 7.4, Phase I only, read-out: CLint (ul/min/mg) Phase I only): < 1 µL/min/mg; clearance ([3]; oral): 0.36 ± 0.12 mL/min/kg; half-life ([3]; oral): 37 ± 26.8 h; Vd ([3]; oral, read-out: Vz): 1.27 ± 0.352 L/kg; bioavailability ([3]; po, peroral): 72.5%; IC50 (CYP1A2): > 20 µM
